Test results published in patent US20070048372A1, “Method for treating non-inflammatory osteoarthritic pain” (SRZ Properties, Inc., priority 2005, published 2007).

Tests used:
[1] = test system: monosodium iodoacetate-induced mechanical hyperalgesia; assay: Monosodium iodoacetate-induced mechanical hyperalgesia (Randall-Selitto paw pressure); type: in vivo, rat (Wistar); details: 3 mg/kg s.c.
[2] = test system: rat formalin paw test (late phase); assay: Rat formalin paw test (late phase): number of flinches and licking time; type: in vivo, rat (Rj: Wistar (Han))
Method: Rats were given an intraplantar injection of 5% formalin (50 μl) into the posterior left paw. This treatment induces a recognizable flinching and licking response of the affected paw in control animals. The number of flinches was counted for 15 minutes, beginning 20 minutes after injection of formalin. The time spent licking the affected paw was also recorded.
Male Rj: Wistar (Han) rats, 10 per group, weighing 100-130 g at the beginning of the experiments were studied per group. The test was performed blind.
Lacosamide (20 mg/kg), gabapentin (50 and 100 mg/kg), combinations of lacosamide (20 mg/kg) with gabapentin (50 and 100 mg/kg), and vehicle were administered i.p. 10 minutes before injection of formalin.
Lacosamide (10 and 20 mg/kg), morphine (2 and 4 mg/kg), combinations of lacosamide (10 and 20 mg/kg) with morphine (2 and 4 mg/kg), and vehicle were administered i.p. 10 minutes before injection of formalin.
Lacosamide (10 mg/kg), duloxetine (8 mg/kg), a combination of lacosamide (10 mg/kg) with duloxetine (8 mg/kg), and vehicle were administered i.p. 10 minutes before injection of formalin.
Lacosamide (10 and 20 mg/kg), memantine (4 and 8 mg/kg), combinations of lacosamide (10 and 20 mg/kg) with memantine (4 and 8 mg/kg), and vehicle were administered i.p. 10 minutes before injection of formalin.
Lacosamide (10 and 20 mg/kg), naproxen (8 and 16 mg/kg), combinations of lacosamide (10 and 20 mg/kg) with […] (8 and 16 mg/kg), and vehicle were administered i.p. 10 minutes before injection of formalin. Morphine (8 mg/kg) was included as a comparative treatment.

[3] = test system: monosodium iodoacetate-induced tactile allodynia; assay: Monosodium iodoacetate-induced tactile allodynia (von Frey filaments); type: in vivo, rat (Wistar); details: 3 mg/kg s.c., 60 minutes before test
[4] = Example 4, 2 and 4 mg/kg i.p. alone, did not reach statistical significance

CN1CC[C@]23c4c5ccc(O)c4O[C@H]2[C@@H](O)C=C[C@H]3[C@H]1C5 [Morphine]
paw pressure withdrawal threshold compared to iodoacetate/vehicle treated animals (mechanical hyperalgesia) ([1]; day 3): increase in paw pressure withdrawal threshold | mechanical hyperalgesia (paw pressure withdrawal threshold) ([1]; day 7): reduced mechanical hyperalgesia | Licking time % change (a) compared with vehicle control ([2]; Example 4, 2 mg/kg i.p. alone): −1% (a) | Licking time (seconds) mean ± SEM ([2]; Example 4, 2 mg/kg i.p. alone): 289.3 ± 30.7 NS (a) seconds | No. of flinches % change (a) compared with vehicle control ([2]; Example 4, 2 mg/kg i.p. alone): −7% (a) | No. of flinches mean ± SEM ([2]; Example 4, 2 mg/kg i.p. alone): 139.5 ± 25.3 NS (a) | Licking time % change (a) compared with vehicle control ([2]; Example 4, 4 mg/kg i.p. alone): −20% (a) | Licking time (seconds) mean ± SEM ([2]; Example 4, 4 mg/kg i.p. alone): 234.9 ± 37.3 NS (a) seconds | No. of flinches % change (a) compared with vehicle control ([2]; Example 4, 4 mg/kg i.p. alone): −37% (a) | No. of flinches mean ± SEM ([2]; Example 4, 4 mg/kg i.p. alone): 94.3 ± 21.1 NS (a) | effect on the number of flinches as compared with vehicle controls [2, 4]: dose-dependently decreased | effect on the time spent licking as compared with vehicle controls [2, 4]: dose-dependently decreased | Licking time % change (a) compared with vehicle control ([2]; Example 7, 8 mg/kg i.p. alone): −100% (a) | Licking time (seconds) mean ± SEM ([2]; Example 7, 8 mg/kg i.p. alone): 0.0 ± 0.0 (a) seconds | No. of flinches % change (a) compared with vehicle control ([2]; Example 7, 8 mg/kg i.p. alone): −100% (a) | No. of flinches mean ± SEM ([2]; Example 7, 8 mg/kg i.p. alone): 0.2 ± 0.1 (a) | effect on flinching and the time spent licking as compared with vehicle controls ([2]; Example 7, 8 mg/kg i.p. alone): eliminated flinching and the time spent licking | tactile allodynia of iodoacetate-treated rats (von Frey) ([3]; day 3): improved tactile allodynia | tactile allodynia of iodoacetate-treated rats (von Frey) ([3]; day 7): improved tactile allodynia | tactile allodynia of iodoacetate-treated rats (von Frey) ([3]; day 14): not on day 14
